Our source for the IC50 and Ki values is ChEMBL document CHEMBL2384918, “Identification of Selective Nanomolar Inhibitors of the Human Neuraminidase, NEU4” (ACS Med Chem Lett, 2013).

Structures are written as SMILES. Bounds are passed on as bounds.

In test [1] the target is T1, Sialidase-3 (Homo sapiens, UniProt Q9UQ49).
T1 sequence (Q9UQ49 whole entry): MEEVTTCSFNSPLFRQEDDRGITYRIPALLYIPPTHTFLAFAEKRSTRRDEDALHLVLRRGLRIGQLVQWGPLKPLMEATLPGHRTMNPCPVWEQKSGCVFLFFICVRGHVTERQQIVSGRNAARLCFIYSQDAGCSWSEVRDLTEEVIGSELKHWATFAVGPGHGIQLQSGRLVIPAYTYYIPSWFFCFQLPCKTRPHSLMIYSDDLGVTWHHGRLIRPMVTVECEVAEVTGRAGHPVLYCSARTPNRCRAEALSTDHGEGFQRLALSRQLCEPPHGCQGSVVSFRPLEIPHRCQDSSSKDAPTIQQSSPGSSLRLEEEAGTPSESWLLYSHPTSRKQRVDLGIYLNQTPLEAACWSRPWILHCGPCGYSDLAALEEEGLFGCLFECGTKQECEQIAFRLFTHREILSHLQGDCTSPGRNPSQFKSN
The experiment in a line: Inhibition of human NEU3 using 4-MU-NANA as substrate preincubated for 15 mins before substrate addition measured after 30 mins by fluorescence plate reader analysis.

Test [2] concerns the target Sialidase-1 (Homo sapiens, UniProt Q99519). The experiment in a line: Inhibition of human NEU1 using 4-MU-NANA as substrate preincubated for 15 mins before substrate addition measured after 30 mins by fluorescence plate reader analysis.
Test [3] addresses T2, Sialidase-4 (Homo sapiens, UniProt Q8WWR8).
T2 sequence (Q8WWR8 whole entry): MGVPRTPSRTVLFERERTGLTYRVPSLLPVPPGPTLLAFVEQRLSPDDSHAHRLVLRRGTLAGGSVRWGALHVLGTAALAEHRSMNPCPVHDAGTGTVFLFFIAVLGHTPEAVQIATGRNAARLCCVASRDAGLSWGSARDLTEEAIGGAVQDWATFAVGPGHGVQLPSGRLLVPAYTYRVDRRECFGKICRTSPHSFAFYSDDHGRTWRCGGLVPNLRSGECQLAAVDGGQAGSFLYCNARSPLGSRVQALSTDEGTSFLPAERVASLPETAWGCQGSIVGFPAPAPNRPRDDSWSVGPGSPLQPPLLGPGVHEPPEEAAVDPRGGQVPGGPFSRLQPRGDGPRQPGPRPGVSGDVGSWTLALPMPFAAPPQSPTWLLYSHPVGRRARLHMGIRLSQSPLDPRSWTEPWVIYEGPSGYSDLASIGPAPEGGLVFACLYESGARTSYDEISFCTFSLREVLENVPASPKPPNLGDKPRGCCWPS
In words: Inhibition of human NEU4 using 4-MU-NANA as substrate preincubated for 15 mins before substrate addition measured after 30 mins by fluorescence plate reader analysis.

The target in test [4] is T2, Sialidase-4. In words: Inhibition of human NEU4 using 4-MU-NANA as substrate measured every 30 seconds for 60 mins by fluorescence plate reader analysis.

For the compound `CC(=O)N[C@H]1[C@H]([C@H](O)[C@H](O)CN=[N+]=[N-])OC(C(=O)O)=C[C@@H]1O`, the IC50 in test [1] is 19.7 µM; in test [2], 620 µM; in test [3] it was 60 µM.

On to `CC(=O)N[C@H]1[C@H]([C@H](O)[C@H](O)Cn2cc(-c3ccccc3)nn2)OC(C(=O)O)=C[C@@H]1O`, for which the IC50 in test [1] was 4.6 µM; in test [2], more than 200 µM; in test [3], 2.3 µM.

With `CCOc1cn(C[C@@H](O)[C@@H](O)[C@@H]2OC(C(=O)O)=C[C@H](O)[C@H]2NC(C)=O)nn1`, the values for the IC50 in test [1], in test [2] and in test [3] were 90 µM, 170 µM and 3.6 µM, respectively.

As to `CC(=O)N[C@H]1[C@H]([C@H](O)[C@H](O)Cn2cc(COc3ccccc3)nn2)OC(C(=O)O)=C[C@@H]1O`, the IC50 in test [1] was 5.5 µM; in test [2] it was more than 1000 µM; in test [3] it was 1.7 µM.

With `CC(=O)N[C@H]1[C@H]([C@H](O)[C@H](O)Cn2cc(CO)nn2)OC(C(=O)O)=C[C@@H]1O`, the IC50 in test [1] is 80 µM; in test [2] it was more than 1000 µM.

`CC(=O)N[C@H]1[C@H]([C@H](O)[C@H](O)Cn2cc(CCO)nn2)OC(C(=O)O)=C[C@@H]1O` gave a Ki in test [4] of 0.06 µM. In addition, the IC50 in test [1] is 38 µM; in test [2], more than 1000 µM; in test [3], 0.81 µM.

As for `CC(=O)N[C@H]1[C@H]([C@H](O)[C@H](O)Cn2cc(CCCO)nn2)OC(C(=O)O)=C[C@@H]1O`, the figures for the IC50 in test [1], in test [2] and in test [3] were 39 µM, 660 µM and 2.1 µM, respectively.

Consider `CC(=O)N[C@H]1[C@H]([C@H](O)[C@H](O)Cn2cc(C(C)(C)O)nn2)OC(C(=O)O)=C[C@@H]1O`, for which the results for the IC50 in test [2] and in test [3] were more than 1000 µM and 4 µM, respectively.

Turning to `[N-]=[N+]=NCC(=O)N[C@H]1[C@H]([C@H](O)[C@H](O)CO)OC(C(=O)O)=C[C@@H]1O`, the IC50 in test [1] was 4.7 µM; in test [2], 29 µM; in test [3], 4.5 µM.

Regarding `O=C(Cn1cc(-c2ccccc2)nn1)N[C@H]1[C@H]([C@H](O)[C@H](O)CO)OC(C(=O)O)=C[C@@H]1O`, the results for the IC50 in test [1], in test [2] and in test [3] were more than 1000 µM, more than 1000 µM and 250 µM, respectively.
